Experimental data published in PubChem BioAssay (NCI).
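Test compounds were applied to cells in 96-well plates for 48 hours at 5 doses. At the TGI there is no net growth.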

Key:
Assay in all cases: inhibition of tumour cell growth, NCI panel, 48 h
SK-MEL-28 melanoma = test system: SK-MEL-28 melanoma
MALME-3M melanoma = test system: MALME-3M melanoma
UO-31 renal = test system: UO-31 renal
SNB-75 CNS = test system: SNB-75 CNS
UACC-257 melanoma = test system: UACC-257 melanoma
HCC-2998 colon = test system: HCC-2998 colon
OVCAR-5 ovarian = test system: OVCAR-5 ovarian
SW-620 colon = test system: SW-620 colon
OVCAR-3 ovarian = test system: OVCAR-3 ovarian
HL-60(TB) leukemia = test system: HL-60(TB) leukemia
SF-268 CNS = test system: SF-268 CNS
OVCAR-8 ovarian = test system: OVCAR-8 ovarian
UACC-62 melanoma = test system: UACC-62 melanoma
SF-295 CNS = test system: SF-295 CNS
K-562 leukemia = test system: K-562 leukemia
SK-MEL-5 melanoma = test system: SK-MEL-5 melanoma
NCI-H23 lung = test system: NCI-H23 lung
HT29 colon = test system: HT29 colon
CCRF-CEM leukemia = test system: CCRF-CEM leukemia
HCT-116 colon = test system: HCT-116 colon

| Compound | TGI (SK-MEL-28 melanoma) | TGI (MALME-3M melanoma) | TGI (UO-31 renal) | TGI (SNB-75 CNS) | TGI (UACC-257 melanoma) | TGI (HCC-2998 colon) | TGI (OVCAR-5 ovarian) | TGI (SW-620 colon) | TGI (OVCAR-3 ovarian) | TGI (HL-60(TB) leukemia) | TGI (SF-268 CNS) | TGI (OVCAR-8 ovarian) | TGI (UACC-62 melanoma) | TGI (SF-295 CNS) | TGI (K-562 leukemia) | TGI (SK-MEL-5 melanoma) | TGI (NCI-H23 lung) | TGI (HT29 colon) | TGI (CCRF-CEM leukemia) | TGI (HCT-116 colon) |
| --- | --- | --- | --- | --- | --- | --- | --- | --- | --- | --- | --- | --- | --- | --- | --- | --- | --- | --- | --- | --- |
| CC(=O)Nc1ccc(C(=O)NN2C(=O)C(Cl)C2/C=C/c2ccccc2)cc1 (stereo not given) | > 100 µM | > 100 µM | > 100 µM | > 100 µM | > 100 µM | > 100 µM | > 100 µM | > 100 µM | > 100 µM | > 100 µM | > 100 µM | > 100 µM | > 100 µM | > 100 µM | > 100 µM | > 100 µM | > 100 µM | > 100 µM | > 100 µM | > 100 µM |
| COc1ccc(Nc2cnc3cc(N)ccc3n2)cc1OC | > 100 µM | > 100 µM | > 100 µM | > 100 µM | > 100 µM | > 100 µM | > 100 µM | > 100 µM | > 100 µM | 62.1 µM | > 100 µM | > 100 µM | > 100 µM | > 100 µM | > 100 µM | > 100 µM | > 100 µM | > 100 µM | > 100 µM | > 100 µM |
| Nc1[nH]nc2c1Cc1c(n(Cc3ccc(Cl)cc3)c3ccccc13)C(=O)N2 | > 100 µM | 52.3 µM | 19.4 µM | 30.6 µM | 46.4 µM | 24.6 µM | 27.3 µM | > 100 µM | 30.5 µM | 10.2 µM | 47.8 µM | 39.2 µM | > 100 µM | 35.9 µM | > 100 µM | 17.6 µM | 23.9 µM | 34.9 µM | 26.6 µM | 21.8 µM |
